Patent US11412737B2, “Mixtures of beflubutamid or optically enriched forms thereof with a second herbicide” (FMC Corporation, priority 2016, dated 2022)

What was measured:
Assay in all cases: pre-emergence test, weed control
[1] = test system: Common lambsquarters (CHEAL); type: in vivo, Chenopodium album; conditions: pre-emergent
Protocol: (§1) Test compositions containing the test compounds were diluted with water to provide the appropriate test rate concentrations.
(§2) For pre-emergence testing, four disposable fiber flats (6 inch by 10 inch) for each rate of application of each herbicide solution were filled with top soil, to which seeds of each species were planted in furrows made by a template pressed on the top of the soil. The furrows were covered with soil after planting the seed and were watered well before application of the test compounds.
(§3) Fiber flats designated for treatment were placed in a spray chamber having a static platform and a movable sprayer and the height of the spray nozzle was 10.5 inches above the soil level. Once the sprayer was calibrated using water for spray volume of 30 gallons per acre, flats were sprayed with sprayer at a speed to receive a coverage equivalent of 30 gallons per acre. The application rates are those shown in the Tables below for the individual herbicidal solutions and the herbicide compositions of this invention. The pre-emergence flats were immediately placed in the greenhouse and watered lightly after treatment. Thereafter they were regularly watered and fertilized for the duration of the test.
(§4) The control of weeds was evaluated in each experimental test at 21 for wheat and 28 days after treatment (DAT) for all species. Data were analyzed using Minitab software at 95% confidence interval. The results, shown as an average of the replications, were compared with results observed in untreated control flats in the same tests. Percent control was determined by a method similar to the 0 to 100 rating system disclosed in “Research Methods in Weed Science,” 2nd ed., B. Truelove, Ed.; Southern Weed Science Society; Auburn University, Auburn, Ala., 1977. The rating system is as follows in Table 1.

Green foxtail (SETVI) = type: in vivo, Setaria viridis; conditions: pre-emergent, 28 DAT, (+)-BFL >95% e.e., rate g ai/ha by row: r6 62.5, r7 125, r8 62.5, r9 125, r10 222, r11 445, r12 22.5, r13 45, r14 62.5+62.5, r15 125+62.5, r16 62.5+125, r17 125+125, r18 62.5+222, r19 125+222, r20 62.5+445, r21 125+445, r22 62.5+22.5, r23 125+22.5, r24 62.5+45, r25 125+45
Protocol: as §1, §2, §3, §4

Yellow foxtail (SETLU) = type: in vivo; conditions: pre-emergent, 28 DAT, (+)-BFL >95% e.e., rate g ai/ha by row: r6 62.5, r7 125, r8 62.5, r9 125, r10 222, r11 445, r12 22.5, r13 45, r14 62.5+62.5, r15 125+62.5, r16 62.5+125, r17 125+125, r18 62.5+222, r19 125+222, r20 62.5+445, r21 125+445, r22 62.5+22.5, r23 125+22.5, r24 62.5+45, r25 125+45
Protocol: as §1, §2, §3, §4

Blackgrass (ALOMY) = type: in vivo; conditions: pre-emergent, 28 DAT, (+)-BFL >95% e.e., rate g ai/ha by row: r6 62.5, r7 125, r8 62.5, r9 125, r10 222, r11 445, r12 22.5, r13 45, r14 62.5+62.5, r15 125+62.5, r16 62.5+125, r17 125+125, r18 62.5+222, r19 125+222, r20 62.5+445, r21 125+445, r22 62.5+22.5, r23 125+22.5, r24 62.5+45, r25 125+45
Protocol: as §1, §2, §3, §4

Italian ryegrass (LOLMU) = type: in vivo, Lolium perenne. multiflorum; conditions: pre-emergent, 28 DAT, (+)-BFL >95% e.e.; rate g ai/ha by row: r6 62.5, r7 125, r8 62.5, r9 125, r10 222, r11 445, r12 22.5, r13 45, r14 62.5+62.5, r15 125+62.5, r16 62.5+125, r17 125+125, r18 62.5+222, r19 125+222, r20 62.5+445, r21 125+445, r22 62.5+22.5, r23 125+22.5, r24 62.5+45, r25 125+45
Protocol: as §1, §2
Fiber flats designated for treatment were placed in a spray chamber having a static platform and a movable sprayer and the height of the spray nozzle was 10.5 inches above the soil level. Once the sprayer was calibrated using water for spray volume of 30 gallons per acre, flats were sprayed with sprayer at a speed to receive a coverage equivalent of 30 gallons per acre. […]
The control of weeds was evaluated in each experimental test at 21 for wheat and 28 days after treatment (DAT) for all species. Data were analyzed using Minitab software at 95% confidence interval. […] Percent control was determined by a method similar to the 0 to 100 rating system disclosed in “Research Methods in Weed Science,” 2nd ed., B. Truelove, Ed.; Southern Weed Science Society; Auburn University, Auburn, Ala., 1977. […]

Wild oat (AVEFA) = type: in vivo, Avena fatua; conditions: pre-emergent, 28 DAT, (+)-BFL >95% e.e., rate g ai/ha by row: r6 62.5, r7 125, r8 62.5, r9 125, r10 222, r11 445, r12 22.5, r13 45, r14 62.5+62.5, r15 125+62.5, r16 62.5+125, r17 125+125, r18 62.5+222, r19 125+222, r20 62.5+445, r21 125+445, r22 62.5+22.5, r23 125+22.5, r24 62.5+45, r25 125+45
Protocol: as §1, §2, §3, §4

CC[C@@H](Oc1ccc(F)c(C(F)(F)F)c1)C(=O)NCc1ccccc1 [(+)-BFL]
weed control of common lambsquarters (CHEAL) ([1]; applied alone, 28 DAT (Table 17)): low level weed control
percentage of weed control, CHEAL ([1]; 28 DAT, (+)-BFL >95% e.e., rate g ai/ha by row: r6 62.5, r7 125, r8 62.5, r9 125, r10 222, r11 445, r12 22.5, r13 45, r14 62.5+62.5, r15 125+62.5, r16 62.5+125, r17 125+125, r18 62.5+222, r19 125+222, r20 62.5+445, r21 125+445, r22 62.5+22.5, r23 125+22.5, r24 62.5+45, r25 125+45): 37%
percentage of weed control, SETVI (Green foxtail (SETVI); 62.5 g ai/ha): 7%
percentage of weed control, SETVI (Green foxtail (SETVI); 125 g ai/ha): 8%
percentage of weed control, SETLU (Yellow foxtail (SETLU); 62.5 g ai/ha): 0%
percentage of weed control, SETLU (Yellow foxtail (SETLU); 125 g ai/ha): 5%
percentage of weed control, ALOMY (Blackgrass (ALOMY); 62.5 g ai/ha): 2%
percentage of weed control, ALOMY (Blackgrass (ALOMY); 125 g ai/ha): 5%
percentage of weed control, LOLMU (Italian ryegrass (LOLMU)): 1%
percentage of weed control, AVEFA (Wild oat (AVEFA); 62.5 g ai/ha): 0%
percentage of weed control, AVEFA (Wild oat (AVEFA); 125 g ai/ha): 1%
